Measurements as given in ChEMBL document CHEMBL3580566, “Identification of 2-[4-[(4-Methoxyphenyl)methoxy]-phenyl]acetonitrile and Derivatives as Potent Oct3/4 Inducers” (2015).
The source made the active and inactive calls. No cut-off for these calls is given here.

Legend:
Fibroblast [1] = test: Induction of human Nanog protein expression in human adult primary fibroblasts assessed as increase in protein level at 20 uM after 5 days by Hoechst 33258 staining based immunostaining relative to control; type: functional, cell-based
Fibroblast [2] = test: Induction of cell cycle arrest in human adult primary fibroblasts assessed as accumulation of cells at S phase at 20 uM after 5 days by propidium iodide staining assay (reference value: 2%); type: functional
Fibroblast [3] = test: Induction of human Oct3/4 and Sox2 protein expression in human adult primary fibroblasts assessed as positive cells normalized to total number of cells; type: functional, cell-based
Fibroblast [4] = test: Induction of human Nanog protein expression in human adult primary fibroblasts assessed as increase in protein expression at 20 uM after 72 hrs by immunoblotting analysis relative to control; type: functional, cell-based
Fibroblast [5] = test: Induction of human Oct3/4 protein expression in human adult primary fibroblasts assessed as increase in protein expression at 20 uM after 72 hrs by immunoblotting analysis relative to control; type: functional, cell-based
HeLa [6] = test: Induction of Oct3/4 accumulation in human HeLa cells at 10 uM after 48 hrs by immunolotting analysis; type: functional, cell-based
NCCIT [7] = test: Induction of Oct3/4 accumulation in human NCCIT cells at 10 uM after 48 hrs by immunolotting analysis; type: functional, cell-based
[8] = target: POU domain, class 5, transcription factor 1 (Homo sapiens) (UniProt Q01860); test: Activation of human Oct3/4 in NCCIT cells transfected with firefly luciferase gene assessed as relative luciferase activity after 72 hrs by luminometer plate reader relative to DMSO control; type: cell-based
Chain of POU domain, class 5, transcription factor 1 (Homo sapiens) (Q01860 whole entry, the tested form may be a part): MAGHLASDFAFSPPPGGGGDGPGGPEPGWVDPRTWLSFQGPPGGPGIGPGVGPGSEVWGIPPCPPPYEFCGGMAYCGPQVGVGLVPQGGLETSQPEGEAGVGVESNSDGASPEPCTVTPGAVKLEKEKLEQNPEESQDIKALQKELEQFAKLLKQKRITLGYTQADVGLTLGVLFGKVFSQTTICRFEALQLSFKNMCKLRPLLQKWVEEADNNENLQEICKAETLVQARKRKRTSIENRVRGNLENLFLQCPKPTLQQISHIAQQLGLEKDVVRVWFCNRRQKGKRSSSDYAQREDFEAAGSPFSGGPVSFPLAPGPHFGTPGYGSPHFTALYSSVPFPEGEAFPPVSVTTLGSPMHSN

Fibroblast [9] = test: Induction of human Oct3/4 protein expression in human adult primary fibroblasts assessed as increase in protein level at 20 uM after 5 days by Hoechst 33258 staining based immunostaining relative to control; type: functional, cell-based
HeLa [10] = test: Induction of Nanog accumulation in human HeLa cells at 10 uM after 48 hrs by immunolotting analysis; type: functional, cell-based
Fibroblast [11] = test: Induction of human KLF4 protein expression in human adult primary fibroblasts assessed as increase in protein level at 20 uM after 5 days by Hoechst 33258 staining based immunostaining relative to control; type: functional, cell-based
Fibroblast [12] = test: Induction of human Oct3/4 protein expression in human adult primary fibroblasts assessed as positive cells normalized to total number of cells; type: functional
Fibroblast [13] = test: Induction of human E-Cadherin level in human adult primary fibroblasts assessed as increase in protein level at 20 uM after 72 hrs by FACS analysis relative to control; type: functional, cell-based
[14] = target: POU domain, class 5, transcription factor 1 (Homo sapiens) (UniProt Q01860); test: Activation of human Oct3/4 in HEK293 cells transfected with firefly luciferase gene assessed as relative luciferase activity after 72 hrs by luminometer plate reader relative to DMSO control; type: cell-based
Fibroblast [15] = test: Induction of human c-Myc gene expression in human adult primary fibroblasts assessed as increase in mRNA level at 20 uM after 48 hrs by qRT-PCR analysis relative to control; type: functional
[16] = target: Homeobox protein NANOG (Homo sapiens) (UniProt Q9H9S0); test: Activation of human Nanog in NCCIT cells transfected with firefly luciferase gene assessed as relative luciferase activity up to 72 hrs by luminometer plate reader relative to DMSO control; type: cell-based
Chain of Homeobox protein NANOG (Homo sapiens) (Q9H9S0 whole entry): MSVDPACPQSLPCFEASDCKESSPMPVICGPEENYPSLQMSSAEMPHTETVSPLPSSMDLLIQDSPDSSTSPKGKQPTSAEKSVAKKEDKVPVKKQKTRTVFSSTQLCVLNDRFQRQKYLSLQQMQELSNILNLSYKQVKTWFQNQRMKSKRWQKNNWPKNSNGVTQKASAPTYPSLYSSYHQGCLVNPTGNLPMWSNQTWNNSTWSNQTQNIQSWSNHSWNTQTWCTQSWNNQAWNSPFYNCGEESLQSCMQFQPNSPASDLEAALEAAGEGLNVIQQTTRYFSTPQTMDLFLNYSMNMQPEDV

Fibroblast [17] = test: Induction of human Oct3/4 gene expression in human adult primary fibroblasts assessed as increase in mRNA level at 20 uM after 48 hrs by qRT-PCR analysis relative to control; type: functional
Fibroblast [18] = test: Induction of cell cycle arrest in human adult primary fibroblasts assessed as accumulation of cells at G1 phase at 20 uM after 5 days by propidium iodide staining assay (reference value: 74%); type: functional
Fibroblast [19] = test: Induction of human Lin28 protein expression in human adult primary fibroblasts assessed as increase in protein expression at 20 uM after 72 hrs by immunoblotting analysis relative to control; type: functional, cell-based
NCCIT [20] = test: Induction of Nanog accumulation in human NCCIT cells at 10 uM after 48 hrs by immunolotting analysis; type: functional, cell-based
Fibroblast [21] = test: Induction of human Sox2 protein expression in human adult primary fibroblasts assessed as increase in protein level at 20 uM after 5 days by Hoechst 33258 staining based immunostaining relative to control; type: functional, cell-based
Fibroblast [22] = test: Induction of human Sox2 protein expression in human adult primary fibroblasts assessed as increase in protein expression at 20 uM after 72 hrs by immunoblotting analysis relative to control; type: functional, cell-based
Fibroblast [23] = test: Induction of human Nanog gene expression in human adult primary fibroblasts assessed as increase in mRNA level at 20 uM after 48 hrs by qRT-PCR analysis relative to control; type: functional
[24] = target: POU domain, class 5, transcription factor 1 (Homo sapiens) (UniProt Q01860); test: Activation of human Oct3/4 in human adult primary fibroblasts at 20 uM by immunoblotting analysis relative to control; conditions: TDE = time-dependent effect
Fibroblast [25] = test: Induction of human Klf4 gene expression in human adult primary fibroblasts assessed as increase in mRNA level at 20 uM after 48 hrs by qRT-PCR analysis relative to control; type: functional
Fibroblast [26] = test: Induction of human Sox2 protein expression in human adult primary fibroblasts assessed as positive cells normalized to total number of cells; type: functional
Fibroblast [27] = test: Induction of human Rex1 gene expression in human adult primary fibroblasts assessed as increase in mRNA level at 20 uM after 48 hrs by qRT-PCR analysis relative to control; type: functional
[28] = target: POU domain, class 5, transcription factor 1 (Homo sapiens) (UniProt Q01860); test: Activation of human Oct3/4 in HEK293 cells transfected with firefly luciferase gene assessed as relative luciferase activity at 5 uM after 72 hrs by luminometer plate reader relative to DMSO control; type: cell-based
[29] = target: POU domain, class 5, transcription factor 1 (Homo sapiens) (UniProt Q01860); test: Activation of human Oct3/4 in HEK293 cells transfected with firefly luciferase gene assessed as relative luciferase activity after 48 to 72 hrs by luminometer plate reader relative to DMSO control; type: cell-based
[30] = target: POU domain, class 5, transcription factor 1 (Homo sapiens) (UniProt Q01860); test: Activation of human Oct3/4 in HEK293 cells transfected with firefly luciferase gene assessed as luciferase signal by luminometer plate reader relative to DMSO control; type: cell-based
[31] = target: POU domain, class 5, transcription factor 1 (Homo sapiens) (UniProt Q01860); test: Activation of human Oct3/4 in HEK293 cells transfected with firefly luciferase gene assessed as relative luciferase activity at 5 uM by luminometer plate reader relative to DMSO control; type: cell-based; conditions: TDE = time-dependent effect
HEK293 [32] = test: Induction of human Oct3/4 protein expression in HEK293 cells assessed as increase in protein expression after 48 hrs by immunoblotting analysis relative to DMSO control; type: functional, cell-based
HEK293 [33] = test: Induction of human Sox2 protein expression in HEK293 cells assessed as increase in protein expression at 10 uM after 48 hrs by immunoblotting analysis relative to DMSO control; type: functional, cell-based
[34] = target: POU domain, class 5, transcription factor 1 (Homo sapiens) (UniProt Q01860); test: Activation of human Oct3/4 in HEK293 cells transfected with firefly luciferase gene assessed as relative luciferase activity at 5 uM after 48 hrs by luminometer plate reader relative to DMSO control; type: cell-based
HEK293 [35] = test: Induction of human Oct3/4 protein expression in HEK293 cells assessed as increase in protein expression at 6 uM after 48 hrs by immunoblotting analysis relative to DMSO control; type: functional, cell-based
HEK293 [36] = test: Induction of human Nanog protein expression in HEK293 cells assessed as increase in protein expression at 0.5 to 20 uM after 48 hrs by immunoblotting analysis relative to DMSO control; type: functional, cell-based
HEK293 [37] = test: Induction of human Oct3/4 protein expression in HEK293 cells assessed as increase in protein expression at 10 uM after 96 hrs by immunoblotting analysis relative to DMSO control; type: functional, cell-based
HEK293 [38] = test: Induction of human Oct3/4 protein expression in HEK293 cells assessed as increase in protein expression at 10 uM after 48 hrs by immunoblotting analysis relative to DMSO control; type: functional, cell-based
HEK293 [39] = test: Induction of human Sox2 protein expression in HEK293 cells assessed as increase in protein expression at 10 uM after 24 hrs by immunoblotting analysis relative to DMSO control; type: functional, cell-based
HEK293 [40] = test: Induction of human Oct3/4 expression in HEK293 cells transfected with firefly luciferase gene assessed as increase in mRNA level at 20 uM after 72 hrs by qRT-PCT analysis; type: functional
HEK293 [41] = test: Induction of human Oct3/4 expression in HEK293 cells transfected with firefly luciferase gene assessed as increase in mRNA level at 10 uM after 72 hrs by qRT-PCT analysis; type: functional
HEK293 [42] = test: Induction of human Sox2 protein expression in HEK293 cells assessed as increase in protein expression at 0.5 to 20 uM after 48 hrs by immunoblotting analysis relative to DMSO control; type: functional, cell-based
HFF = test: Induction of human Oct3/4 protein expression in human neonatal foreskin fibroblasts assessed as increase in protein expression at 10 uM after 72 hrs by immunoblotting analysis relative to control; type: functional, cell-based
HEK293 [43] = test: Induction of human Sox2 protein expression in HEK293 cells assessed as increase in protein expression at 10 uM after 96 hrs by immunoblotting analysis relative to DMSO control; type: functional, cell-based
Fibroblast [44] = test: Induction of human Oct3/4 protein expression in human adult primary fibroblasts assessed as increase in protein expression at 10 uM after 72 hrs by immunoblotting analysis relative to control; type: functional, cell-based
HEK293 [45] = test: Induction of human Oct3/4 protein expression in HEK293 cells assessed as increase in protein expression at 10 uM after 24 hrs by immunoblotting analysis relative to DMSO control; type: functional, cell-based

## N#CCc1ccc(OCc2ccc(F)cc2)cc1
Fibroblast [1]
  Activity: Active
Fibroblast [2]
  Activity: 7%
Fibroblast [3]
  Activity: Active
Fibroblast [4]
  Activity: Active
Fibroblast [5]
  Activity: Active
HeLa [6]
  Activity: Active
NCCIT [7]
  Activity: Active
[8]
  RLU: 4.02
Fibroblast [9]
  Activity: Active
HeLa [10]
  Activity: Active
Fibroblast [11]
  Activity: Active
Fibroblast [12]
  Activity: 6%
Fibroblast [13]
  Activity: Active
[14]
  RLU: 6.58
Fibroblast [15]
  fold change (FC): 2
[16]
  Activity: Active
Fibroblast [17]
  fold change (FC): 7
Fibroblast [18]
  Activity: 66%
Fibroblast [19]
  Activity: Active
NCCIT [20]
  Activity: Active
Fibroblast [21]
  Activity: Active
Fibroblast [22]
  Activity: Active
Fibroblast [23]
  fold change (FC): 12
[24]
  Activity: tde
Fibroblast [25]
  fold change (FC): 6
Fibroblast [26]
  Activity: 9%
Fibroblast [27]
  fold change (FC): 1.3

## Cc1ccc(COc2ccc(CC#N)cc2)cc1
[8]
  RLU: 2.26
[14]
  RLU: 2

## N#CCc1ccc(OCc2ccc(-c3ccccc3)cc2)cc1
[8]
  RLU: 0.73
[14]
  RLU: 0.84

## N#CCc1ccc(OCc2ccc(OC(F)(F)F)cc2)cc1
[8]
  RLU: 2.14
[14]
  RLU: 4.9

## N#Cc1ccc(OCc2ccc(F)cc2)cc1
[8]
  RLU: 2.26
[14]
  RLU: 5.83

## COc1ccc(COc2ccc(C#N)cc2)cc1
[8]
  RLU: 0.99
[14]
  RLU: 3

## N#Cc1ccc(OCc2ccc(OC(F)(F)F)cc2)cc1
[8]
  RLU: 1.5
[14]
  RLU: 3.4

## N#CCc1ccc(OCc2ccc(C#N)cc2)cc1
[8]
  RLU: 1.88
[14]
  RLU: 1.79

## N#CCc1ccc(OCc2ccc([N+](=O)[O-])cc2)cc1
[8]
  RLU: 2.61
[14]
  RLU: 4.02

## COc1ccc(COc2ccc(CC#N)cc2)cc1
[28]
  fold change (FC): 3
[29]
  Activity: Dose-dependent effect
[30]
  fold change (FC): 5
[31]
  Activity: tde
HEK293 [32]
  Activity: Dose-dependent effect
HEK293 [33]
  Activity: Active
[34]
  fold change (FC): 2
HEK293 [35]
  Activity: Active
HEK293 [36]
  Activity: Active
HEK293 [37]
  Activity: Active
[8]
  RLU: 2.68
HEK293 [38]
  Activity: Active
HEK293 [39]
  Activity: Active
[14]
  RLU: 3.85
[16]
  Activity: Active
HEK293 [40]
  fold change (FC): 4
HEK293 [41]
  fold change (FC): 2.5
HEK293 [42]
  Activity: Active
HFF
  Activity: Active
HEK293 [43]
  Activity: Active
Fibroblast [44]
  Activity: Active
HEK293 [45]
  Activity: Active

## N#Cc1ccc(OCc2ccc([N+](=O)[O-])cc2)cc1
[8]
  RLU: 1.08
[14]
  RLU: 2.65
